From patent US8324188B2, “Combinations of ET-18-O-CH3and anti-cancer agents for the treatment of cancer” (priority 2006, dated 2012)
“And” between values parts separate entries of the source, which are not always exact repeats. Equal values may be shown once.

Assays:
HMEC1 endothelial cells = details: cited from earlier work
A549 (FAS negative) = assay: WST-1 proliferation assay, A549; format: cell-based, human; details: single agent, per experiment line
Protocol: (§1) 2000 cells were plated in each well of 96-well flat bottom plates, and incubated overnight at 37 °C in 5% CO2. The growth of plated cells was measured by adding […] of WST-1 reagent (Roche Applied Sciences, Germany) to 3 control wells and measuring the absorbance at 650 nm and at 450 nm, respectively, with a SpectraMax250 plate reader. […] After this incubation, VVST-1 reagent was added to the wells and OD650-OD450 values were calculated as before. six wells were assayed for each conditions and standard deviation was determined: all experiments were performed at least three times independently. […] DDP and GMZ were both purchased from Sigma-aldrich Corp., St. Louis, Mo., USA. The following cell lines were used: A549 (FAS negative), NCI-H460 (FAS positive), and HCC827 (FAS positive), all obtained from the ATTC, Rockville, Md., USA.

LN-18 = assay: WST-1 proliferation assay, LN-18; format: cell-based; details: Homo sapiens
Protocol: as §1, with “Six different concentrations of each drug were used in combinations index measurements” for “DDP”, “compared to +/− cells,” for “GMZ were both purchased from Sigma-aldrich Corp., St. Louis, Mo., USA. The following cell lines were used: A549 (FAS negative), NCI-H460 (FAS positive),”, “compared to controls without compound.” for “HCC827 (FAS positive), all obtained from the ATTC, Rockville, Md., USA.”

[1] = test system: LNCaP androgen-sensitive human prostate adenocarcinoma cells; assay: Apo-ONE Homogenous Caspase-3/7 Assay in LNCaP cells; format: cell-based
Protocol: FIG. 1. Depicts the in vitro effects of 1-O-octadecyl-2-O-methyl-glycero-3-phosphocholine (final concentration 10 μM), (ionizing) radiation (absorbed dose of 5 Gray units; indicated as “RT”), and a combination thereof on programmed cell death (apoptosis) and the survival rate of LNCaP androgen-sensitive human prostate adenocarcinoma cells. Apoptosis was determined using the Apo-ONE™ Homogenous Caspase-317 Assay, Promega, Inc., Madison, Wis., USA according to the manufacturers instructions. The percentage of living cancer cells was estimated by means of trypan blue dye exclusion as described (Freshney, R. I. (1994) Culture of Animal Cells: A Manual of Basic Technique. 3rd Ed. Wiley-Liss. New York. USA). The cells were exposed to radiation six hours after (FIG. 1A), concomitantly with (FIG. 1B), or six hours before administration of 1-O-octadecyl-2-O-methyl-glycero-3-phospho-choline (FIG. 1C). The caspase assay was performed 12 hours after exposure to radiation. The respective data shown represent the average of two independent experiments.
First, the in vitro effects of 1-O-octadecyl-2-O-methyl-glycero-3-phosphocholine, (ionizing) radiation, and a combination thereof on programmed cell death (apoptosis) and the survival rate of LNCaP androgen-sensitive human prostate adenocarcinoma cells were measured. The LNCaP cell line was established from a metastatic lesion of the adenocarcinoma. The cells were treated with a final concentration of 10 μM 1-O-octadecyl-2-O-methyl-glycero-3-phosphocholine and (ionizing) radiation corresponding to an absorbed dose of 5 Gray units.
Apoptosis was determined using the Apo-ONE™ Homogenous Caspase-3/7 Assay, Promega, Inc., Madison, VV1, USA according to the manufacturers instructions. The percentage of living tumor cells was estimated by means of trypan blue dye exclusion as described (Freshney, R. I. (1994) Culture of Animal Cells: A Manual of Basic Technique. 3rd Ed. Wiley-Liss. New York. USA)
The cells were exposed to radiation six hours after (FIG. 1A), concomitantly with (FIG. 1B), or six hours before administration of 1-O-octadecyl-2-O-methyl-glycero-3-phospho-choline (FIG. 1C). The caspase assay was performed 12 hours after exposure to radiation. The respective data shown represent the average of two independent experiments.
In a further approach, 10 μM 1-O-octadecyl-2-O-methyl-glycero-3-phosphocholine (final concentration; “CHEM”) and (ionizing) radiation (5 Gray units; “RT”) were administered simultaneously to the LNCaP cells but the subsequent incubation period was extended to 24 hours. Apoptosis was measured using the Apo-ONE™ Homogenous Caspase-3/7 Assay as described above and expressed as relative fluorescence units (RFLU). The percentage of apoptotic cells was determined by flow cytometric analysis of annexin V-PE positive-stained and 7-AAD (7-Amino ActinomycinD) negative-stained cells (both purchased from BD Biosciences, San Jose, Calif., USA) according to established standard protocols. The data represent means±SEM from three independent experiments.
Apoptosis was measured using the Apo-ONE™ Homogenous Caspase-3/7 Assay as described above and expressed as relative fluorescence units (RFLU). The percentage of apoptotic cells was determined via annexin V-PE/7-AAD staining as described above. The caspase-317 assay and annexin staining were performed 22 hours after CHEM treatment.

HCC827 (FAS positive) = assay: WST-1 proliferation assay, HCC827; format: cell-based, human; details: single agent, per experiment line
Protocol: as §1

NCI-H460 (FAS positive) = assay: WST-1 proliferation assay, NCI-H460; format: cell-based, human; details: single agent, per experiment line
Protocol: as §1

IC50 (A549 (FAS negative); A549): 6000 nM and 6900 nM
IC50 (A549 (FAS negative); Homo sapiens, A549, A549): 8000 nM
IC50 (HCC827 (FAS positive)): 2400 nM and 850 nM and 1600 nM
IC50 (NCI-H460 (FAS positive); Homo sapiens, NCI-H460, NCI-H460): 1500 nM
IC50 (NCI-H460 (FAS positive); NCI-H460): 1400 nM and 2000 nM
SMILES: CCCCCCCCCCCCCCCCCCOCC(COP(=O)([O-])OCC[N+](C)(C)C)OC (racemic) [AP-121, 1-O-octadecyl-2-O-methyl-glycero-3-phosphocholine]
anti-angiogenic activity (HMEC1 endothelial cells): 60 nM
IC50 (LN-18): 1300 nM
increase in apoptotic response (caspase-3/7 assay) ([1]; 10 μM administered six hours prior to radiation (5 Gray), combined treatment (FIG. 1A)): > 2.5 fold
extent of apoptosis, increase in cells only exposed to the chemical as compared to the combined treatment ([1]; 10 μM, radiation six hours before (FIG. 1C)): about 25%
Caspase-3/7 activity (RFLU) ([1]; AD (androgen deprivation, two days) + 5 μM CHEM, AD alone 81): 126 RFLU
Caspase-3/7 activity (RFLU) ([1]; AD + 10 μM CHEM): 115 RFLU
Caspase-3/7 activity (RFLU) ([1]; AD + R1881 (two days prior) + 5 μM CHEM): 453 RFLU
Caspase-3/7 activity (RFLU) ([1]; AD + R1881 (two days prior) + 10 μM CHEM): 962 RFLU
Caspase-3/7 activity (RFLU) ([1]; CHEM 10 μM + RT 5 Gray simultaneously, 24 hours, means±SEM, p < 0.0001 vs CHEM and RT): 1514 ± 102 RFLU
Caspase-3/7 activity (RFLU) ([1]; CHEM 10 μM alone, 24 hours, means±SEM, three experiments, Control 193 ± 39): 580 ± 207 RFLU
Caspase-3/7 activity (RFLU) ([1]; Contr. + 5 μM CHEM, 22 hours after CHEM, Contr. 235): 380 RFLU
Caspase-3/7 activity (RFLU) ([1]; Contr. + 10 μM CHEM, 22 hours after CHEM): 436 RFLU
